Converted amounts (≈) assume the structure as drawn.
Experiments:
[1] = system: MDA-MB-231; test: Cytotoxicity against human MDA-MB-231 cells assessed as reduction in cell viability incubated for 96 hrs by MTT assay; details: MDA-MB-231, 96 h
[2] = system: PC-3; test: Cytotoxicity against human PC3 cells assessed as reduction in cell viability incubated for 96 hrs by MTT assay; type: cell-based; details: PC-3, 96 h, read-out: IC50
[3] = system: Candida albicans; test: Antifungal activity against Candida albicans ATCC SC5314 measured after 24 hrs by broth microdilution assay; type: functional
[4] = system: Candida albicans; test: Antifungal activity against fluconazole-resistant Candida albicans 17# assessed as inhibition of microbial growth after 24 hrs by broth microdilution method; type: functional
[5] = system: Candida albicans; test: Potency index, ratio of fluconazole MIC to test compound MIC for Candida albicans CPCC400616 measured after 24 hrs by broth microdilution assay; type: functional
[6] = system: Candida albicans; test: Antifungal activity against Candida albicans CPCC400616 measured after 24 hrs by broth microdilution assay; type: functional
[7] = Hemolytic activity in rabbit RBC assessed as hemolysis ratio at 1 ug/ml measured after 3 hrs by microplate reader assay relative to control; type: ADME, cell-based, Oryctolagus cuniculus, Erythrocyte; details: rabbit red blood cells (erythrocytes), at 1 µg/mL, read-out: Activity
[8] = system: Candida albicans; test: Antifungal activity against fluconazole-resistant Candida albicans 632 assessed as inhibition of microbial growth after 24 hrs by broth microdilution method; type: functional
[9] = system: Pichia kudriavzevii; test: Antifungal activity against Candida krusei AS2.1045 measured after 24 hrs by broth microdilution assay; type: functional
[10] = Hemolytic activity in rabbit RBC assessed as hemolysis ratio at 16 ug/ml measured after 3 hrs by microplate reader assay relative to control; type: ADME, cell-based, Oryctolagus cuniculus, Erythrocyte; details: rabbit red blood cells (erythrocytes), at 16 µg/mL, read-out: Activity
[11] = system: MCF-10A; test: Cytotoxicity against human MCF-10A cells assessed as reduction in cell viability incubated for 96 hrs by MTT assay; type: cell-based; details: read-out: IC50
[12] = Hemolytic activity in rabbit RBC assessed as hemolysis ratio at 2 ug/ml measured after 3 hrs by microplate reader assay relative to control; type: ADME, cell-based, Oryctolagus cuniculus, Erythrocyte; details: rabbit red blood cells (erythrocytes), at 2 µg/mL, read-out: Activity
[13] = system: Candida albicans; test: Antifungal activity against fluconazole-resistant Candida albicans 901 assessed as inhibition of microbial growth after 24 hrs by broth microdilution method; type: functional
[14] = system: Candida albicans; test: Antifungal activity against fluconazole-resistant Candida albicans CaR assessed as inhibition of microbial growth after 24 hrs by broth microdilution method; type: functional
[15] = system: Candida albicans; test: Antifungal activity against fluconazole-resistant Candida albicans 904 assessed as inhibition of microbial growth after 24 hrs by broth microdilution method; type: functional
[16] = Hemolytic activity in rabbit RBC assessed as hemolysis ratio at 8 ug/ml measured after 3 hrs by microplate reader assay relative to control; type: ADME, cell-based, Oryctolagus cuniculus, Erythrocyte; details: rabbit red blood cells (erythrocytes), at 8 µg/mL, read-out: Activity
[17] = Hemolytic activity in rabbit RBC assessed as hemolysis ratio at 4 ug/ml measured after 3 hrs by microplate reader assay relative to control; type: ADME, cell-based, Oryctolagus cuniculus, Erythrocyte; details: rabbit red blood cells (erythrocytes), at 4 µg/mL, read-out: Activity
[18] = system: Cryptococcus neoformans; test: Antifungal activity against Cryptococcus neoformans CMGCC2.3161 measured after 72 hrs by broth microdilution assay; type: functional
[19] = system: [Candida] zeylanoides; test: Antifungal activity against Candida zeylanoides CMGCC2.3739 measured after 24 hrs by broth microdilution assay; type: functional; details: Dujonia zeylanoides
[20] = system: Nakaseomyces glabratus; test: Antifungal activity against Candida glabrata measured after 24 hrs by broth microdilution assay; type: functional
[21] = system: Candida parapsilosis; test: Antifungal activity against Candida parapsilosis ATCC 22019 measured after 24 hrs by broth microdilution assay; type: functional; details: Lodderomyces parapsilosis
[22] = system: Aspergillus fumigatus; test: Antifungal activity against Aspergillus fumigatus CMGCC3.7795 measured after 72 hrs by broth microdilution assay; type: functional
[23] = system: HL-60; test: Cytotoxicity against human HL-60 cells assessed as reduction in cell viability incubated for 96 hrs by MTT assay; type: cell-based; details: HL-60, 96 h
[24] = system: Candida albicans; test: Anti-biofilm activity in Candida albicans CPCC400616 assessed as inhibition of biofilm formation incubated for 24 hrs with 3 hrs precultured fungal suspension by XTT assay; type: functional
[25] = system: Candida albicans; test: Anti-biofilm activity in Candida albicans CPCC400616 assessed as inhibition of biofilm formation incubated for 24 hrs with 1.5 hrs precultured fungal suspension by XTT assay; type: functional
[26] = Metabolic stability in mouse liver microsomes assessed as half life; type: ADME, Microsome
[27] = system: Candida albicans; test: Anti-biofilm activity in Candida albicans CPCC400616 assessed as inhibition of biofilm formation incubated for 24 hrs with 24 hrs precultured fungal suspension by XTT assay; type: functional
[28] = Metabolic stability in mouse liver microsomes assessed as clearance; type: ADME, Microsome; details: read-out: CLH
[29] = system: Candida albicans; test: Anti-biofilm activity in Candida albicans CPCC400616 assessed as inhibition of biofilm formation incubated for 24 hrs with 6 hrs precultured fungal suspension by XTT assay; type: functional

SMILES | IC50 [1] | IC50 [2] | MIC [3] | MIC [4] | Ratio [5] | MIC [6] | MIC [8] | MIC [9] | MIC [13] | MIC [14] | MIC [15] | MIC [18] | MIC [19] | MIC [20] | MIC [21] | MIC [22] | other results
CC(=O)O[C@H]1C(=O)[C@@]2(C)[C@H]([C@H](OC(=O)c3ccccc3)[C@]3(O)C[C@H](OC(=O)[C@H](O)[C@@H](NC(=O)c4ccccc4)c4ccccc4)C(C)=C1C3(C)C)[C@]1(OC(C)=O)CO[C@@H]1C[C@@H]2O [PACLITAXEL] | < 0.001 µM | < 0.025 µM |  |  |  |  |  |  |  |  |  |  |  |  |  |  | 
Cc1ccc(C)c([Se]C(Cn2ccnc2)c2ccc(Cl)cc2Cl)c1 (stereo not drawn) | 6.61 µM | 7.25 µM | 0.03 µg/mL (≈ 0.0707 µM) | 0.13 µg/mL | 8 | 0.25 µg/mL (≈ 0.589 µM) | 0.5 µg/mL | 0.5 µg/mL (≈ 1.18 µM) | 0.25 µg/mL | 0.25 µg/mL | 0.25 µg/mL | 0.5 µg/mL (≈ 1.18 µM) | 2 µg/mL (≈ 4.71 µM) | 0.5 µg/mL (≈ 1.18 µM) | 0.5 µg/mL (≈ 1.18 µM) | 16 µg/mL (≈ 37.7 µM) | hemolysis at 3 h, 1 ug/ml [7]: 0%; hemolysis at 3 h, 16 ug/ml [10]: 100%; IC50 [11]: 27.2 µM; hemolysis at 3 h, 2 ug/ml [12]: 0.89%; hemolysis at 3 h, 8 ug/ml [16]: 100%; hemolysis at 3 h, 4 ug/ml [17]: 84.4%; IC50 [23]: 6.95 µM
Cc1ccc([Se]C(Cn2ccnc2)c2ccc(F)cc2F)cc1 (stereo not drawn) |  |  | 0.03 µg/mL (≈ 0.0795 µM) | 16 µg/mL | 8 | 0.5 µg/mL (≈ 1.33 µM) | 1 µg/mL | 0.13 µg/mL (≈ 0.345 µM) | 8 µg/mL | 2 µg/mL | 4 µg/mL | 0.13 µg/mL (≈ 0.345 µM) | 0.5 µg/mL (≈ 1.33 µM) | 0.5 µg/mL (≈ 1.33 µM) | 0.25 µg/mL (≈ 0.663 µM) | 8 µg/mL (≈ 21.2 µM) | 
CCc1ccccc1[Se]C(Cn1ccnc1)c1ccc(Cl)cc1Cl (stereo not drawn) |  |  | 0.03 µg/mL (≈ 0.0707 µM) | 4 µg/mL | 8 | 0.25 µg/mL (≈ 0.589 µM) | 16 µg/mL | 0.5 µg/mL (≈ 1.18 µM) | 4 µg/mL | 2 µg/mL | 1 µg/mL | 0.5 µg/mL (≈ 1.18 µM) | 0.5 µg/mL (≈ 1.18 µM) | 0.13 µg/mL (≈ 0.306 µM) | 0.13 µg/mL (≈ 0.306 µM) | 8 µg/mL (≈ 18.9 µM) | 
Fc1cccc([Se]C(Cn2ccnc2)c2ccc(Cl)cc2Cl)c1 (stereo not drawn) | 13.4 µM | 20.4 µM | 0.06 µg/mL (≈ 0.145 µM) | 1 µg/mL | 8 | 0.25 µg/mL (≈ 0.604 µM) | 0.5 µg/mL | 0.13 µg/mL (≈ 0.314 µM) | 1 µg/mL | 2 µg/mL | 1 µg/mL | 0.13 µg/mL (≈ 0.314 µM) | 0.25 µg/mL (≈ 0.604 µM) | 1 µg/mL (≈ 2.41 µM) | 0.25 µg/mL (≈ 0.604 µM) | 4 µg/mL (≈ 9.66 µM) | MIC50 [24]: 8 µg/mL (≈ 19.3 µM); MIC80 [24]: 128 µg/mL (≈ 309 µM); hemolysis at 3 h, 1 ug/ml [7]: 0%; MIC50 [25]: 4 µg/mL (≈ 9.66 µM); MIC80 [25]: 16 µg/mL (≈ 38.6 µM); half-life [26]: 10.3 min; hemolysis at 3 h, 16 ug/ml [10]: 100%; IC50 [11]: 28.6 µM; hemolysis at 3 h, 2 ug/ml [12]: 0%; MIC50 [27]: > 128 µg/mL; MIC80 [27]: > 128 µg/mL; hemolysis at 3 h, 8 ug/ml [16]: 94.6%; CLint scaled [28]: 531 mL/min/kg; hemolysis at 3 h, 4 ug/ml [17]: 87.7%; MIC50 [29]: 128 µg/mL (≈ 309 µM); MIC80 [29]: > 128 µg/mL; IC50 [23]: 8.26 µM
Cc1cc(C)cc([Se]C(Cn2ccnc2)c2ccc(Cl)cc2Cl)c1 (stereo not drawn) |  |  | 0.06 µg/mL (≈ 0.141 µM) | 16 µg/mL | 8 | 0.5 µg/mL (≈ 1.18 µM) | 16 µg/mL | 0.5 µg/mL (≈ 1.18 µM) | 4 µg/mL | 8 µg/mL | 16 µg/mL | 0.5 µg/mL (≈ 1.18 µM) | 0.5 µg/mL (≈ 1.18 µM) | 0.25 µg/mL (≈ 0.589 µM) | 0.5 µg/mL (≈ 1.18 µM) | 8 µg/mL (≈ 18.9 µM) | 
Cc1ccccc1[Se]C(Cn1ccnc1)c1ccc(F)cc1F (stereo not drawn) |  |  | 0.02 µg/mL (≈ 0.053 µM) | 4 µg/mL | 8 | 0.13 µg/mL (≈ 0.345 µM) | 4 µg/mL | 0.02 µg/mL (≈ 0.053 µM) | 2 µg/mL | 8 µg/mL | 1 µg/mL | 0.5 µg/mL (≈ 1.33 µM) | 0.5 µg/mL (≈ 1.33 µM) | 1 µg/mL (≈ 2.65 µM) | 0.13 µg/mL (≈ 0.345 µM) | 8 µg/mL (≈ 21.2 µM) | 
Cc1ccc([Se]C(Cn2ccnc2)c2ccc(Cl)cc2Cl)cc1 (stereo not drawn) |  |  | 0.03 µg/mL (≈ 0.0731 µM) | 4 µg/mL | 8 | 0.25 µg/mL (≈ 0.609 µM) | 4 µg/mL | 0.5 µg/mL (≈ 1.22 µM) | 8 µg/mL | 32 µg/mL | 16 µg/mL | 0.13 µg/mL (≈ 0.317 µM) | 0.25 µg/mL (≈ 0.609 µM) | 0.25 µg/mL (≈ 0.609 µM) | 0.5 µg/mL (≈ 1.22 µM) | 8 µg/mL (≈ 19.5 µM) | 

Source: ChEMBL document CHEMBL4813985, “Lead optimization generates selenium-containing miconazole CYP51 inhibitors with improved pharmacological profile for the treatment of fungal infections” (Eur J Med Chem, 2021)
